Reference: US20050250819A1 (priority 2004, published 2005)

Experiments:
Assay type in all cases: cell-based
[1] = system: Type III protein secretion of the chimeric SopE‘-’Bla polypeptide (SPI1 type III protein secretion system); experiment: Primary assay: Type III protein secretion of the chimeric SopE'-'Bla polypeptide by Salmonella enterica; conditions: read-out: SopE IC50(μM)
Outline: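 Salmonella enterica grown under SPI1-inducing conditions expressed a SopE‘-’Bla fusion, with TEM-1 β-lactamase lacking its signal peptide, with or without test compounds. Nitrocefin added to the cultures was hydrolysed only by the secreted fusion, so the colorimetric signal reports type III secretion, and inhibitors lower it.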

[2] = system: Type III-dependent secretion of ExoU by P. aeruginosa PA103; experiment: Tertiary assay: Type III-dependent secretion of ExoU by P. aeruginosa PA103; conditions: Pseudomonas aeruginosa, ExoU secreted into extracellular medium
Excerpt: Tertiary assay: inhibition of Type III protein secretion of effectors from a Pseudomonas aeruginosa system. Type III protein secretion is used by P. aeruginosa to secrete several essential virulence determinants. One effector of the type III protein secretion system of P. aeruginosa PA103 is the virulence determinants ExoU.
The amount of Type III-dependent secretion of ExoU by P. aeruginosa PA103 can be determined in a cell-based assay by quantification of the 73.9 kDa ExoU protein secreted into the extracellular medium. Such quantitation can be achieved by growing strain PA103 in a deferrated medium in the presence of nitrilotriacetic acid (an inducer of Type III protein secretion in P. aeruginosa) and either in the presence or absence of putative inhibitors. After a prolonged growth period, the cells are sedimented and the supernatants concentrated by ammonium sulfate precipitation. The proteins in the resuspended pellets are separated by electrophoresis on SDS-polyacrylamide gels. After staining gels with Colloidal Blue™, the 73.9 kDa ExoU band is quantitated by scanning through an imager. The effects of inhibitors on the intensity of the ExoU band may be measured relative to that of untreated controls.

[3] = system: Type III-dependent secretion of SipB (SPI1 type III protein secretion system); experiment: Secondary assay: Type III-dependent protein secretion of the SipB polypeptide by S. enterica; conditions: Salmonella enterica, read-out: SipB IC50(μM)
Method: Secondary assay: Type III-dependent protein secretion of the SipB polypeptide by S. enterica. The SipB protein of S. enterica is another effector of the SPI1 type III protein secretion system from S. enterica. In this cell-based procedure, the Type III-dependent secretion of SipB from the bacterial cytoplasm to the extracellular medium was measured through its reactivity with a cognate mouse monoclonal.
Salmonella enterica cells growing either in the presence or in the absence of inhibitors are induced for the production of SipB. Following an established period of growth the cells are sedimented and the amount of SipB present in the supernatant is quantified with a scanning imager following application of immunoblot techniques. Detection may employ an anti-SipB mouse monoclonal antibody (e.g., obtained from Jorge Galan, SUNY at Stony Brook, N.Y.) followed by treatment with commercially available sheep anti-mouse polyclonal antibody conjugated with horseradish peroxidase. Thereafter the membrane is treated with a peroxidase chemiluminescent substrate and exposed to film for an appropriate exposure time. Inhibition may be measured relative to untreated controls.

SMILES: O=C(N[C@@H](Cc1ccc(Cl)cc1)C(=O)O)/C(=C\c1cccc(C(F)(F)F)c1)NC(=O)c1ccc(Oc2ccccc2)cc1 [Compound 47, (S)-3-(4-Chlorophenyl)-2-[2-(4-phenoxybenzoylamino)-3-(3-trifluoromethyl-phenyl)acryloylamino]propionic acid]
- IC50 [1]: 12.4 µM
- IC50 [2]: 35.1 µM

SMILES: O=C(N[C@H](CO)CSCc1ccccc1)/C(=C\c1ccc(-c2ccccc2)cc1)NC(=O)c1ccc(C(F)(F)F)cc1 [Compound 14]
- IC50 [3]: 77.3 µM
